Patent US20100144790A1, “Use of Thalidomide for Alzheimers Disease Treatment and Prevention” (priority 2008, published 2010)
Entries after “also recorded” stand apart in the source; their conditions may differ.

Columns and labels:
BACE1 [1] = experiment: BACE1 protein level in Thalidomide-treated APP23 mice; type: in vivo, mouse; conditions: Thalidomide 100 mg/kg/day i.p.
Procedure: (§1) Thalidomide is an effective BACE1 inhibitor. The Thalidomide used to test effectiveness was ordered from Sigma, T144, 1.0 gram. The Thalidomide dose was 100 mg/kg/day. The application of Thalidomide to the mice born by the same mother was during the period from 9 months old to 12 months old. The preparation of Thalidomide was at first to be dissolved in DMSO and then diluted with saline. The injection into peritoneal cavity was performed once a day for 3 months. In general, the average weight of the mice was 30 grams. The volume of injection was 100 mg/kg/day×0.03 Kg/mouse=3 mg/mouse/day (if 10 mg/ml of Thalidomide, then 300 ul/mouse/day). […] The amyloid plaque number was 84.6/section in untreated control APP23 mice, where as there was only 3.91/section in the Thalidomide-treated APP23 mice. Use of Thalidomide in the transgenic mice reduced Aβ plaque formation and Aβ production, which is correlated to the reduced BACE1 enzymatic activity and protein level. Thus Thalidomide can decrease CSF BACE1 and CSF Aβ in AD and MCI patients. […]
One BACE1 ELISA used a combination of a highly specific anti-BACE1 polyclonal antibody SECB2 as a capture antibody and biotinylated anti-BACE1 polyclonal antibody SECB1 as a detection antibody. […] The concentration of BACE1 will be calculated from the standard curve and expressed as μg/ml.

BACE1 [2] = molecular target: T1, BACE1 (Mus musculus, UniProt P56818); experiment: BACE1 enzymatic activity in frontal cortex crude extracts of Thalidomide-treated APP23 mice (fluorescent-labeled APP peptide); type: in vivo; conditions: Thalidomide 100 mg/kg
T1 construct: the frontal cortices of 12-months old APP23 transgenic mice after Thalidomide treatment with doses of 100 mg/kg for one month were obtained for the enzymatic crude extracts; from tissue; host or cells: frontal cortex / brain homogenate of APP23 transgenic mice (C57BL/6 background)
Procedure: Thalidomide is an effective BACE1 inhibitor. The Thalidomide used to test effectiveness was ordered from Sigma, T144, 1.0 gram. The Thalidomide dose was 100 mg/kg/day. The application of Thalidomide to the mice born by the same mother was during the period from 9 months old to 12 months old. The preparation of Thalidomide was at first to be dissolved in DMSO and then diluted with saline. The injection into peritoneal cavity was performed once a day for 3 months. In general, the average weight of the mice was 30 grams. The volume of injection was 100 mg/kg/day×0.03 Kg/mouse=3 mg/mouse/day (if 10 mg/ml of Thalidomide, then 300 ul/mouse/day). […]
BACE1 enzymatic activity was measured by using an aliquot of brain homogenate from APP23 and the wild-type mice. […] An equal amount of protein was mixed with 100 μl of substrate, and fluorescence intensity was measured with a microplate reader (BioTek) at an excitation wavelength of 320 nm and an emission wavelength of 390 nm.
To evaluate the BACE1 enzymatic activity level under the impact of Thalidomide, the frontal cortices of 12-months old APP23 transgenic mice after Thalidomide treatment with doses of 100 mg/kg for one month were obtained for the enzymatic crude extracts. […] The specific fluorescence was detected when labeled APPwt or APPsw peptides were cleaved by BACE1. […]

[3] = tested on: Aβ deposition in the brain of APP23 mice; experiment: Aβ plaque number by 6E10 immunostaining in APP23 mice after Thalidomide injection; type: in vivo, mouse; conditions: Thalidomide 100 mg/kg
Procedure: as §1, with “level.” for “level. Thus Thalidomide can decrease CSF BACE1 and CSF Aβ in AD and MCI patients.”
(§2) Quantitation of immunoreactive structures 30-μm serial sagittal sections through the entire rostrocaudal extent of the hippocampus were cut on a cryostat. […] For each section, we delineated a 400-μm^2 area in CA1 and in the entorhinal cortex and counted all NeuN-immunoreactive cells within that 400-μm^2 box. The mean sum of neurons was counted per animal (n=10). […] We also measured the diameter of each counted plaque. […]

Aβ production = Aβ production in Thalidomide-treated APP23 mice; type: in vivo, mouse; conditions: Thalidomide 100 mg/kg/day i.p.
Procedure: as §1, with “level.” for “level. Thus Thalidomide can decrease CSF BACE1 and CSF Aβ in AD and MCI patients.”
APP23 and wild-type mice (n=10 per group) were killed at 12 and 24 mo of age, and one hemisphere of the brain was homogenized in homogenization buffer (250 mM sucrose, 20 mM Tris-HCl, pH 7.4, 1 mM EDTA, and 1 mM EGTA). […] Protein concentration was measured by protein assay (Bio-Rad Laboratories). […] Aβ40 and Aβ42 were measured with an Aβ40 and Aβ42 ELISA kit (Biosource International). […]

[4] = cited from earlier work
APP23 transgenic mice [5] = experiment: Neuronal loss in Thalidomide-treated APP23 mice; type: in vivo, mouse; conditions: Thalidomide 100 mg/kg/day i.p.
Procedure: as §1, with “level.” for “level. Thus Thalidomide can decrease CSF BACE1 and CSF Aβ in AD and MCI patients.”
as §2

APP23 transgenic mice [6] = experiment: Aβ-related memory deficits in Thalidomide-treated APP23 mice; type: in vivo, mouse; conditions: Thalidomide 100 mg/kg/day i.p.
Procedure: The Thalidomide used to test effectiveness was ordered from Sigma, T144, 1.0 gram. […] The application of Thalidomide to the mice born by the same mother was during the period from 9 months old to 12 months old. The preparation of Thalidomide was at first to be dissolved in DMSO and then diluted with saline. The injection into peritoneal cavity was performed once a day for 3 months. In general, the average weight of the mice was 30 grams. […] The Hole-board memory task was used to measure a mouse's ability to remember which one out of four equidistant holes was baited with food. Two photobeam apparatuses were used with a hole board for assessing directed exploration in mice for behavioral tests. A tested mouse (n=10 for each group) was placed in the center of the hole-board and the number of nose pokes was automatically registered for 5 min. […] The number of head dips, time spent head-dipping, and the number of rearings was recorded. A comprehensive cognitive performance was determined by calculating the mean number of correct pokes per trial that mouse made each day. Cognition was expressed as the percentage of correct pokes. The measurements in the hole-board test were analyzed by unpaired t test. […] A recognition index was calculated for each mouse, expressed as the ratio (100TB)×(TA+TB), where TA and TB are the time spent during the second trial on subject A and subject B, respectively.

BACE1 [7] = molecular target: T2, BACE1 (Homo sapiens, UniProt P56817); experiment: BACE1 enzymatic activity of AD brain crude extracts with caspase inhibitor; type: biochemical; conditions: AD brain enzymatic crude extracts incubated with the caspase inhibitor
T2 construct: from tissue; host or cells: post-mortem brain of sporadic AD patients (temporal cortex / hippocampus samples)
Text: BACE1 enzymatic activity level increased in brains of AD patients. Fluorescent transfer peptides bearing the APP wild-type peptide (APPwt) BACE1 cleavage site (KTEEISEVKMDAE) or APP Swedish mutation (APPsw) BACE1 cleavage site ([…]) were used to test BACE1 enzymatic activity. These peptides were also labeled with methoxycoumarin acetic acid (MCA) and dinitrophenyl (DNP). As a positive control, we transiently transfected BACE1 cDNA or empty vector into HEK293 cells, and observed high-intensity fluorescence with BACE1-transfected cells (FIG. 2A). Enzymatic activity, represented by the fluorescent intensity of APPwt and APPsw fragments, increased in AD brain samples compared with ND samples (FIG. 2A). Further, more APPsw fragment than the APPwt fragment was cleaved by crude extracts from AD brain (FIG. 2A).

T1 sequence (P56818 46-501): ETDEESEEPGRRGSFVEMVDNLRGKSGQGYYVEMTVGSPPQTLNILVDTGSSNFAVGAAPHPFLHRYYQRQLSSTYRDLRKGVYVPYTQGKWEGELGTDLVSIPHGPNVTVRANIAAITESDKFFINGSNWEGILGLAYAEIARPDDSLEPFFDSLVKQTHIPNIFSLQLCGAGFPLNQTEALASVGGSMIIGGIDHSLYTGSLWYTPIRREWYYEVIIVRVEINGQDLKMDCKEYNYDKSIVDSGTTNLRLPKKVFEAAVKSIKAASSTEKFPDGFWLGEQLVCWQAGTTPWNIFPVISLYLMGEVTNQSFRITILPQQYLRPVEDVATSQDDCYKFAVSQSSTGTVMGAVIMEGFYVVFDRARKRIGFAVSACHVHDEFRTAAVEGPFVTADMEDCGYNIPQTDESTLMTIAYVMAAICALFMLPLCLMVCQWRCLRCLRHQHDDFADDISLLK
T2 sequence (P56817 46-501): as the sequence (P56818 46-501) above, with S6P, I162V, I165L, T180S, A182V, V340I, A393L, H443Q counted along it

effect on BACE1 enzymatic activity assay (in words) (BACE1 [7]) | Compound | BACE1 protein level (in words) (BACE1 [1]) | BACE1 enzymatic activity level (in words) (BACE1 [2]; 12 months old APP23 mice, frontal cortex extracts, versus untreated APP23 mice) | decrease in BACE1 activity levels (BACE1 [2]; both the in vitro and in vivo studies, APP23 mice) [%] | Aβ plaque number ([3]; 12 months of age, frontal cortex, 6E10 immunostaining, untreated APP23 84.6/section) | Aβ deposition / Aβ plaques (in words) ([3]; versus untreated APP23 mice) | Aβ production (in words) (Aβ production) | tolerability of regimen (in words) ([4]; 400 mg Thalidomide, non-elderly subjects with other conditions, without dose-related, severe or serious adverse events) | maximum tolerable doses ([4]; human, in vivo) | neuronal loss (in words) (APP23 transgenic mice [5]) | Aβ-related memory deficits (in words) (APP23 transgenic mice [6])
– | O=C1CCC(N2C(=O)c3ccccc3C2=O)C(=O)N1 (centres unmarked) [Thalidomide] | reduced | reduced | 42 | 3.91 /section | reduced; also recorded: fewer Aβ plaques | significant reduction | tolerated | 400-800 mg/daily | decreased neuronal loss | alleviated
did not perturb activity | ZVAD (Ome)-CH2F | – | – | – | – | – | – | – | – | – | –
